In a melting point compilation (Tetko et al.; mined from patent text by program, amines drawn as free bases though some values may be those of a salt) one finds melting point data, which are given here for 85 molecules.

Consider `FC(F)(F)C(F)(F)C(F)(F)C(F)(F)C(F)(F)C(F)(F)C(F)(F)C(F)(F)C(F)(F)Br`, for which the melting point turned out to be 30 °C.
With `c1ccc(CCc2nc3cccc4c3n2CCC4)cc1` the figure was 107 to 108 °C.
In the case of `CC(=NOc1ccc(Cl)cc1)c1ccc(C(F)(F)F)cc1NS(=O)(=O)C(F)(F)F` it was 89 to 90 °C; in that of `Cn1nc2c(-c3ccc(Cl)cc3Cl)cccc2c1CCC#N`, 192 to 193 °C; in that of `CC(C)n1nc(-c2c(-c3ccccc3)nn3ccc(OCc4ccccc4)cc23)ccc1=O`, 168 °C.
In the case of `O=C(NCCn1cncn1)c1ccc(Cl)nc1` it was 186 to 188 °C; in that of `Cc1ccc(-c2nc(Cl)cc(Cl)n2)cc1`, 84 to 85 °C; in that of `NS(=O)(=O)Cc1csc(-c2ccc(Cl)c(Cl)c2)n1`, 165 to 167 °C.
As for `COc1cccc(-n2c(=O)[nH]c3c(C(N)=O)nc(-c4cccc(O)c4)nc32)c1F`, the melting point was more than 260 °C.
`CN(C)CCN1C(=O)N2[C@H](c3cccc(O)c3)c3[nH]c4ccc(Br)cc4c3C[C@@]2(C)C1=O` (racemic): the melting point lay within 286 to 288 °C.
With `CCOC(=O)C(=O)c1ccc2c(c1)CCCO2` the figure was 119 to 121 °C.
Regarding `Nc1ccc(-c2ccncc2)nn1`, the melting point fell in the range of 199 to 201 °C.
Molecule `O=C(CNC(=O)c1ccc([N+](=O)[O-])c(I)c1)OCC(Cl)(Cl)Cl` came in with a melting point of 98 to 100 °C.
As for `CC(C)(c1ccc(OP(=O)(c2ccccc2)c2ccccc2)cc1)c1ccc(OP(=O)(c2ccccc2)c2ccccc2)cc1`, the melting point fell in the range of 71 to 72 °C.
The molecule `CC(C)(NCc1ccc(Oc2ccc3c(c2)OCO3)cc1)C(N)=O` had a melting point of 123 to 124 °C.
In the case of `CCC(C)(C)Nc1c(NCc2ccc(F)cc2Cl)c(=O)c1=O` it was 201 to 203 °C; in that of `COc1c(C)cccc1C(=O)O`, 70 to 75 °C.
With `Nc1ccc(Br)cc1CC1NC(=O)NC1=O` (stereo not given) the figure was more than 310 °C; with `COc1cc(-c2nc(N)sc2CCC2CCCCC2)c(OC)cc1Cl`, 110 to 111 °C; with `COc1ccc(C(=O)N[C@H](C(=O)N2CCC[C@H]2C(=O)N[C@@H](C(C)C)[C@@H](O)C(F)(F)F)C(C)C)cc1`, 168 to 170 °C.
In the case of `Nc1cc(-c2nnc(SCc3ccc(Cl)cc3)o2)ccn1` it was 200 to 201 °C; in that of `O=C1CCCC(=O)C1Cc1ccccc1CCCCl`, 143 to 145 °C.
`CCCn1nc(C(=O)O)cc1CC(C)(C)NC(=O)OC(C)(C)C` had a melting point of 151 to 152 °C.
With `COc1ccc2c(c1)Cc1ccccc1C(=O)C2` the figure was 105 to 106 °C; with `CN1CC(CCCl)Oc2cc3ccccc3cc2C1=O` (stereo not given), 101 to 102 °C.
In turn, `COCC(C)Oc1cc(Oc2ccc(S(C)(=O)=O)cc2)cc2cc(C3=NCC(C(OC)OC)S3)[nH]c12` (stereo not given) gave a melting point of 109 to 112 °C.
For `CC(C)(CO)n1c(Cc2ccccc2)nc2c(Cl)nc3ccccc3c21`, the melting point fell in the range of 262 to 266 °C.
`CCCCNS(=O)(=O)c1ccc(N2CCC(NC[C@H](O)COc3cccc4[nH]c5ccccc5c34)CC2)cc1`: the melting point is 166 to 179 °C.
In the case of `O=C(NCCC(=O)N1CCCC1)c1ccc(-c2ccc3nnn(Cc4ccc5ncccc5c4)c3n2)cc1F` it was 151 to 153 °C; in that of `CCOC(=O)CC(=O)c1cc(Cl)ccc1O`, 71.8 to 73.1 °C.
With `C[C@H](NC(=O)c1ncc[nH]1)C(=O)NC(C=O)CC(=O)O` (stereo not given in full) the figure was 115 °C; with `COc1cc(Nc2ncnc3cc4cc(OCc5ccccc5)c(OC)cc4cc23)c(Cl)cc1Cl`, 275 to 280 °C; with `CN1CCC(c2c[nH]c3ccc(NC(=O)c4ccccc4)nc23)CC1`, 111 to 114 °C.
Regarding `CC1=NS(=O)(=O)N(C)C(Oc2ccc([N+](=O)[O-])cc2)=N1`, the melting point was 194 to 197 °C.
As for `CS(=O)(=O)c1ccc(C(=O)c2cc(-c3cccnc3)c(N3CCOCC3)s2)cc1`, the melting point was determined as 147 °C.
In the case of `CC(C)Cc1c2c(nn1C)c(N)nc1ncccc12` it was more than 250 °C; in that of `O=S(=O)(c1ccccc1)c1ccc2c(c1)OCCN2C1CCNC1` (stereo not given), 123 to 128 °C.
`CC(C)n1nc(-c2cc(C(N)=O)c(Cl)nc2-c2ccccc2)ccc1=O` had a melting point of 199 to 200 °C.
Take `COc1ccc(N2C(=O)NC(=O)C23CCCCC3)cc1`: the melting point fell in the range of 203 to 205 °C.
As for `O=C(Nc1ccc(C(F)(F)F)cc1)OCC1(COC(=O)Nc2ccc(C(F)(F)F)cc2)CSc2ccccc2C1=O`, the melting point was in the range of 76 to 82 °C.
In the case of `Cc1cc(C)nc(-n2nc(S(=O)(=O)Nc3c(F)cccc3F)nc2C)n1` it was 228 to 230 °C.
With `CCCN(CCCN1CCN(c2cccc(Cl)c2Cl)CC1)C1CCc2ncsc2C1` (stereo not given) the figure was 110 °C; with `O=C(O)c1ccc(OCCCCn2c(-c3ccccc3)nc(-c3ccccc3)c2-c2ccccc2)cc1`, 202 to 203 °C.
In the case of `CC(C)(C)c1cc(CN)n(NCC(F)(F)F)n1` it was 80 to 83 °C; in that of `O=C1NC(=O)C(Cc2ccc(OCCON=Cc3ccncc3)cc2)S1` (stereo not given), 221 °C.
Turning to `Cc1ccc(-c2ccc(C(=O)Nc3ccc4cc(CN5CCCC5)cnc4c3C)c(F)c2)cc1`, the melting point was in the range of 180 to 182 °C.
In the case of `COC(=O)[C@H]1CC[C@@H](n2nc(-c3c(-c4ccccc4)nn4ccccc34)ccc2=O)[C@H](O)C1` (relative stereo) it was 169 to 172 °C; in that of `COc1cc2c(Nc3cc(CN4CCCC4)c(O)c(CN4CCCC4)c3)ncnc2c(OC)c1OC`, 189 to 191 °C; in that of `Cc1c(NC(=O)c2c(C(=O)N3CCC3)cnn2C)ccn2nc(-c3ccccc3)nc12`, 243 to 245 °C.
With `COC(=O)CCCSC(=S)NCc1ccc(Cl)cc1` the figure was 60 to 62 °C; with `CCNCC1CCN(c2c(F)cc3c(=O)c(C(=O)O)cn(C4CCCCC4)c3c2F)C1` (stereo not given), 194 to 196 °C.
`O=Cc1ccc(OCCn2ncc3ccccc3c2=O)cc1` gave a melting point of 104 to 106 °C.
In the case of `O=C1CNC(=O)N1c1ccncc1` it was 232 to 234 °C.
`COc1cccc([C@H]2O[C@H](CC(=O)Nc3ccc(CC(=O)O)cc3)C(=O)N(CC(C)(C)CO)c3ccc(Cl)cc32)c1OC` returned a melting point of 142 to 144 °C.
With `O=C(O)CC1(c2ccc(Cl)cc2Cl)CNC(=O)C1` (stereo not given) the figure was 188 to 192 °C.
Turning to `Cc1c2c(nc3ccccc13)C(=Cc1ccc(Cl)c(Cl)c1)CC2`, the melting point was in the range of 187 to 188 °C.
The molecule `COC(=O)C1=C(C)N(CCCc2ccccc2)C(C)=C(C(=O)OC)C1c1ccc(OC)c(OC)c1` came in with a melting point of 97 to 98 °C.
Take `FC(F)Oc1cccc(-c2ccc3nnn(Cc4ccc5ncccc5c4)c3n2)c1`: the melting point lay within 122 to 125 °C.
With `O=c1ncc(C(F)(F)F)cn1COCc1ccc(Cl)cc1` the figure was 120 °C; with `O=C(NCc1ccc(F)c(F)c1)c1ccnc(N2CCN(Cc3ccc(F)cc3)C2=O)c1`, 182 to 183 °C; with `CC1=C2CCC3C(CCC4(C)C3CCC4(C)O)C2(C)CC(=CO)C1=O` (stereo not given), 182 to 188 °C.
With `NP(N)(=O)Nc1ccccc1[N+](=O)[O-]` the figure was 200 °C; with `CC1Sc2c(C(=O)O)c(=O)c3cc(F)c(N4CCNC(=O)C4)cc3n21` (stereo not given), 198 to 200 °C.
In the case of `COc1ccc(CC2CCN(C(=O)C(=O)Nc3ccc(NS(C)(=O)=O)cc3)CC2)cc1` it was 206 to 208 °C; in that of `CC(C)(C)OC(=O)NCC1(Cc2noc(=S)[nH]2)CCCCC1`, 160 to 161 °C; in that of `CCCCCCCCOc1ccc(C(=O)Nc2cccc(Cl)c2Cl)cc1`, 104 to 106 °C.
Molecule `COC(=O)c1c(CC(C)C)nc2ccc(Br)cc2c1-c1ccccc1` showed a melting point of 108 to 110 °C.
With `Cn1c(CON)ncc(O)c1=O` the figure was 106 °C.
With `CCC(=O)N(C(=O)CC)c1nc2c(c(-c3ccccc3)cn2C)c(=O)n1C` the figure was 215 to 217 °C; with `CN1C2=CC=CN(CCc3ccc(OCc4ccccc4)cc3)C2=Nc2ccccc2S1(=O)=O`, 133 to 134 °C.
With `CC(=O)Nc1ccc2cccc(N3CCN(C)CC3)c2c1` the figure was 173 to 177 °C.
In turn, `C=CCc1ccc(CCNC(=O)c2cc(Cl)ccc2OC)cc1S(N)(=O)=O` came in with a melting point of 186 to 187 °C.
Molecule `NC(=O)c1[nH]c2cccnc2c1Sc1ccccc1` registered a melting point of 251 °C.
The molecule `O=C(O)COc1cccc2c1Cc1sc(SCC(c3ccccc3)c3ccccc3)nc1-2` gave a melting point of 207 to 210 °C.
In the case of `O=C(Nc1ccccc1O)c1ccc(OCCCCc2ccccc2)cc1`, the melting point fell in the range of 116 to 117 °C.
`COc1ccc(-n2cccc2-c2ccc(S(C)(=O)=O)cc2)cc1F` registered a melting point of 116 to 118 °C.
In turn, `C=C(c1ccc(C(=O)O)cc1)C(O)(Cn1cncn1)c1ccc(F)cc1F` (stereo not given) gave a melting point of 189 to 190 °C.
With `CC(C)(O)C#Cc1ncn2c1[C@@H]1CCCN1C(=O)c1c(Cl)cccc1-2` the figure was 234 to 235 °C; with `O=[N+]([O-])c1cccc(S(=O)(=O)N(CCO)CCO)c1`, 100 to 102 °C.
In the case of `O=C1c2ccccc2C(=O)N1CC(=O)N1c2ccccc2N(Cc2ccccc2)C(=O)C(Cc2ccccc2)C1C(F)(F)F` (stereo not given) it was 262 to 263 °C.
With `C/C(Cn1oc(=O)[nH]c1=O)=C(\C)c1cccc(OCc2nc(-c3ccc(C(F)(F)F)cc3)oc2C)c1` the figure was 144 to 145 °C; with `CCOc1ccc(-c2c(C(=O)OC)c(C(=O)OC)c(O)c3cc(OC)c(OC)c(OC)c23)cc1OCC`, 138 to 140 °C.
In the case of `Cc1noc(NS(=O)(=O)c2ccccc2-c2ccc(-c3ncco3)cc2CN2CCN(C(C)C)C2=O)c1C`, the melting point lay within 105 to 110 °C.
In the case of `COc1cc(OC)c(F)c(N2Cc3cnc(NC[C@H](O)[C@@H](O)CO)nc3N(C3CCCC3)C2=O)c1` it was 86 to 88 °C; in that of `CCOC(=O)c1cc2cc(Oc3ccc(S(C)(=O)=O)cc3)cc(OC)c2[nH]1`, 161 to 162 °C.

By melting point is commonly meant the temperature, or range, at which the solid turns liquid.
